The test system of data set [1] is Pristane-induced arthritis. Put plainly: Pristane-induced arthritis in rats, 60-point arthritis score. Type of data set: in vivo. Particulars: for disease severity (arthritis score) compared to Pristane+PBS: p<0.05. As to the method: The Pristane-induced arthritis model in rats has been established as a clinically-relevant animal model for studying rheumatoid arthritis (Tuncel et al. PLoS One. 2016; 11(5):e0155936). Pristane induced arthritis was induced in 8-week-old, female, Sprague-Dawley rats by an intradermal injection of 300 μL Pristane (2,6,10,14-tetramethypentadecane) at the dorsal side of the tail, 1 cm distal to the base on Day 0 of the study. […] A second dose of 300 μL pristane was administered intradermally, approximately 1 cm distally to the dorsal tail base on Day 4. Animals receiving Pristane were housed together in cages. Animals receiving Pristane were randomized into the following experimental groups: Pristane-only+PBS, Pristane+i.p. Methotrexate (MTX), Pristane+periarticular (p.a.) MBV, and intravenous (i.v.) MBV.
An arthritis score was determined on days 7, 10, 14, 17, 21, 28, and every week thereafter through an endpoint of 100 days for each animal. Photographs of each forepaw and hindpaw were taken as viewed from the volar and plantar perspectives, respectively. Qualitative arthritis severity was evaluated by two independent reviewers using a 60-point arthritis scoring criteria: 1 point was given for each inflamed knuckle or toe, and up to 5 points was assigned for an affected ankle (15 points per paw, 60 points per each rat). […] The Pristane+i.p. methotrexate animals received 0.1 mg/kg methotrexate in 1× sterile PBS (pH 7.4) delivered intra-peritoneally (i.p.) on days 7, 10, 14, 17, and 21. The Pristane+periarticular MBV animals received 25 μL of 500 μg/mL porcine-derived UBM MBV (1×10^11 particles/mL) delivered in the plantar and volar surfaces of hindpaws and forepaws, respectively. The intravenous MBV group received 100 μL of 500 μg/mL UBM MBV (1×10^11 particles/mL) delivered intravenously into the lateral tail vein of the animal. (FIG. 12A) Four animals in each group were assigned to a short-term study of 28 days and four animals were assigned to a 100 day study. Sample size was determined using previously published effect size of methotrexate with a predetermined alpha 0.05 and beta 0.80. Arthritis score was represented as mean+/−standard error of mean. Days 7-21 represent an n of 8 for each group and then days 28 and onward represent an n of 4 for each group. Differences in groups were analyzed using two-way analysis of variance with Tukey's post-hoc correction. Significance was determined prior to the study as p<0.05.

The subject of data set [2] is tibiotalar joint and adjacent synovium. Put plainly: Histopathologic scoring of the tibiotalar joint at day 100 (pristane-induced arthritis). Particulars: i.p. MTX, not significant (p>0.05). The format is in vivo, Sprague-Dawley rats. The text has this: Synovial inflammation, cartilage destruction, and proteoglycan loss are fundamental histopathologic changes that occur in RA disease progression. To determine the effect of MBV treatment on these histopathologic parameters, rat hind paws were collected at study termination for histopathologic imaging and analysis (day 100) from the animals from Example 2.
One hindpaw from each animal was used for histopathological analysis. Tissue specimens were fixed with 10% formalin in PBS, pH 7.4, decalcified using 5% formic acid, and embedded in paraffin wax. Sections were stained with hematoxylin and eosin (H&E) for examination by light microscopy for joint histology and pathology. […]
Inflammation and joint damage of the tibiotalar joint were investigated by using an adapted three-parameter scoring system. Inflammation was scored on a scale of 0-3 (with 0 representing no inflammation and 3 a severe inflamed joint) depending on the relative proportion of inflammatory cells in the synovial tissue. Cartilage destruction was scored on a scale of 0-3, with results ranging from the appearance of dead chondrocytes and empty lacunae to complete loss of articular cartilage. Loss of proteoglycans in cartilage was scored on a scale of 0-3, and here results ranged from fully stained cartilage by toluidine blue staining to complete loss of articular cartilage. […]

In data set [3] the test system is bone remodeling and joint destruction in fore- and hindpaws. In words: MicroCT imaging of paws at day 100 (pristane-induced arthritis). Type of data set: in vivo, Sprague-Dawley rats. Particulars: i.p. MTX, qualitative. The text has this: Micro-Computed Tomography (microCT) images were acquired of hindpaws after sacrifice at day 100 of the animals studied in Example 2.

Data set [4] concerns antibody response to the KLH antigen. Particulars: days 7, 14, and 21 post-immunization; MBV 1 mg/ml i.v. on Day 0, 3, 6; cyclophosphamide 200 mg/kg i.p. on Day 0. The method, then:
The Keyhold Limpet Hemocyanin (KLH) rat model of immunosuppression and immunotoxicity was used to assess immunotoxicity of MBV delivered systemically. […] On Day 0, the cyclophosphamide treated animals received 200 mg/kg i.p. and the MBV treated animals received 1 mg/ml UBM MBV delivered intravenously on Day 0, 3, and 6. On Day 7, all groups besides the vehicle control were immunized with 0.4 mL of 1000 μg/ml reconstituted KLH in Freund's incomplete adjuvant i.p. On days 14, 21, and 28 (7, 14, and 21 days post-immunization), whole blood was collected from the lateral tail vein and serum was isolated for analysis of anti-KLH IgM and IgG. Anti-KLH IgM and IgG were assessed in the serum of all animals using ELISA.

In turn, `CN(Cc1cnc2nc(N)nc(N)c2n1)c1ccc(C(=O)N[C@@H](CCC(=O)O)C(=O)O)cc1` [MTX, methotrexate] had a peak disease score in data set [1] (acute phase (days 0-42), Pristane+i.p. MTX 0.1 mg/kg on days 7, 10, 14, 17, 21, peak at day 21, mean±SEM) of 9.8±0.8. The “disease severity (arthritis score) compared to Pristane+PBS” value is “reduced acute disease severity at days 10, 14, 17, and 21” in data set [1] (acute phase, Pristane+i.p. MTX 0.1 mg/kg); “significantly reduces disease scoring” in data set [1] (acute phase, Pristane+i.p. MTX 0.1 mg/kg, listed as methotrexate); “significant decrease in disease severity” in data set [1] (chronic phase, days 84-100, no treatment after day 28, Pristane+i.p. MTX); “significantly reduces disease scoring” in data set [1] (chronic phase, days 84-100, no treatment after day 28, Pristane+i.p. MTX, listed as methotrexate). Besides, in data set [2], the “severity of cartilage damage compared to Pristane+PBS” value is “reduced the severity of cartilage damage”. Further, the “severity of proteoglycan loss compared to Pristane+PBS” value in data set [2] was “reduced the severity of proteoglycan loss”. The “adverse bone remodeling by microCT, compared to the vehicle control” value in data set [3] was “substantially prevented adverse bone remodeling”.

On to `O=P1(N(CCCl)CCCl)NCCCO1` (stereo not shown) [Cyclophosphamide], for which, in data set [4], the “anti-KLH IgG levels compared to the Vehicle+KLH control” value is recorded as “significantly reduces anti-KLH IgG levels” and the “anti-KLH IgM levels compared to the Vehicle+KLH control” value was “significantly reduces anti-KLH IgM levels”.

Source of the values: patent publication US20240226170A9, “USE OF MBV FOR TREATING AUTOIMMUNE DISEASE” (University of Pittsburgh - Of the Commonwealth System of …, priority 2019, published 2024).
